Reference: ChEMBL document CHEMBL1144788, “Insect growth regulatory effects of linear diterpenoids and derivatives from Baccharis thymifolia” (2008)

Legend:
Tenebrio molitor [1] = experiment: Growth inhibition of topically dosed Tenebrio molitor larvae assessed as duration of pupal instar stage at 120 ug measured every 24 hrs for 60 days; assay type: functional
Tenebrio molitor [2] = experiment: Growth inhibition of topically dosed Tenebrio molitor larvae assessed as imaginal molt inhibition at 120 ug; assay type: functional

SMILES	Activity (Tenebrio molitor [1]) [days]	Inhibition (Tenebrio molitor [2]) [%]
CC(C)=CCC/C(=C\CC/C(=C\CCC1=CCOC1=O)C(=O)O)C(=O)O	5.09	24.1
CC(C)=CCC/C(=C\CC/C(=C\CCc1ccoc1)CO)CO	5.3	
CC(C)=CCC/C(=C\CC/C(=C\CCc1ccoc1)C(=O)O)C(=O)O	10.7	33.6
CC(C)=CCC/C(=C/CC/C(=C\CCc1ccoc1)C(=O)O)C(=O)O	4.7	
CC(C)=CCC[C@@](O)(CO)[C@@H]1CC[C@]2(CO1)OC2CCc1ccoc1 (single isomer, unassigned)	10.6	
COC(=O)/C(=C/CCc1ccoc1)CC/C=C(\CC[C@@H](O)C(C)(C)O)C(=O)OC	12	
COC(=O)/C(=C/CCc1ccoc1)CC/C=C1\CC[C@H](C(C)(C)O)OC1=O	11.2	
CC(C)=CCC[C@](O)(CO)[C@H]1CC/C(=C\CCc2ccoc2)CO1	16.2	14.4
CC(C)=CCC[C@@]1(CO)OC1CC[C@@]1(CO)OC1CCc1ccoc1 (single isomer, unassigned)	12.7	
COC(=O)/C(=C\CC/C(=C\CCc1ccoc1)C(=O)OC)CC[C@H](O)C(C)(C)O	10	
CC(C)=CCC[C@](O)(CO)[C@H]1CC[C@@]2(CO1)OC2CCc1ccoc1 (single isomer, unassigned)	9.9	30.8
COC(=O)/C(=C\CC/C(=C\CCc1ccoc1)C(=O)OC)CC[C@@H](O)C(C)(C)O	11.2	
COC(=O)/C(=C/CCc1ccoc1)CC/C=C(\CC[C@H](O)C(C)(C)O)C(=O)OC	12.1	
COC(=O)/C(=C/CC/C(=C\CCc1ccoc1)C(=O)OC)CCC=C(C)C	7.4	34.3
CC(C)=CCC[C@@](O)(CO)[C@@H]1CC/C(=C\CCc2ccoc2)CO1	12	
COC(=O)/C(=C\CC/C(=C\CCc1ccoc1)C(=O)OC)CCC=C(C)C	6	
